{"source": "patent US12686853B2", "about": "“Methods and compositions for treatment of muscle disease with iPSC-induced human skeletal muscle stem cells” (UNIVERSITY OF MASSACHUSETTS, priority 2020, dated 2026)", "format_in_all_cases": "cell-based, human", "key": {"[1]": {"tested_on": "DUX4 target gene", "assay": "Losmapimod treatment of FSHD1 iMyotubes, NanoString digital RNA assays", "set-up": "dose or concentration left out as unconfirmed", "details": "Pre- or Post-differentiation treatment with Losmapimod, N2 medium", "source_text": "FIG. 21A: Schematic of Losmapimod treatment protocols for Pre-drug administration at the initiation of iMyotube differentiation and at Post iMyotube differentiation after 4 days in N2 differentiation medium. FIG. 21B: NanoString digital RNA assays of DUX4 target gene and muscle gene expression in carrier treated (UT) FSHID1 iMyoblasts and in iMyotube cultures Pre- or Post-differentiation treatment with […] Losmapimod. Normalized counts of expression are presented on linear scale with each dot corresponding to an individual culture. Data are presented as mean±SEM for each condition. For NanoString RNA quantification, 50 ng or 150 ng of total RNA was used for cell culture and xenografted TA muscle, respectively. A muscle NanoString panel was constructed with human specific probes for muscle protein genes, muscle master regulatory genes, developmental transcription factors, signaling genes and multiple housekeeping genes and used for all analysis on an nCounter SprintR profiler (NanoString Technologies, Seattle, WA). Raw mRNA counts were normalized to a series of housekeeping genes (e.g., RPL13A, GAPDH, GUUSB, and VCP) using nSolverR software (NanoString Technologies, Seattle, WA)."}, "[2]": {"tested_on": "genome", "assay": "Genome-wide methylome analysis using Illumina chip assays after 5-AzaC treatment", "details": "data not shown"}, "[3]": {"tested_on": "DUX4", "assay": "5-AzaC treatment of proliferating iMyoblasts, qPCR in myotubes", "details": "lower concentrations", "method": "(§1) FIG. 11E: qPCR assays of the expression of DUX4 target gene (MBD3L2) RNA and a muscle gene (MYH8) RNA of S2 cells (top panel) and iMyoblasts (bottom panel) following 24 hr treatment with increasing doses of 5-AzaC. 5-AzaC-treated S2 cultures were cultured for 6 days of S2 growth medium (GM) and 7 days in S3 differentiation medium (DM). 5-AzaC-treated iMyoblasts were cultured for 6 days in myoblast growth medium (GM) and 4 days in Opti-MEM differentiation medium. qPCR data were normalized to RPL13A and relative expression is shown normalized to […].\niPMs were treated for 24 hr with a pulse of epigenetic drugs, followed by culturing for 7 days in iPM growth medium and 7 days of iPMC differentiation medium. The cultured iPMs were then subjected to qPCR analysis to determine the expression of MBD3L2 RNA (a DUX4 biomarker) and MYH8 RNA (a muscle differentiation marker data now shown). […] See, FIG. 11D. At high 5-AzaC concentrations, MYH8 RNA expression decreased. […] Rickard et al., (2015). […] See, FIG. 11D.\nRibonucleic acid (RNA) was isolated either from cells in culture or from xenoengrafted TA muscles using the RNeasy® Plus Mini Kit (Qiagen) or Aurum® Total RNA Fatty and Fibrous Tissue kit (Bio-Rad) respectively per the manufacturer's specifications. […]"}, "[4]": {"tested_on": "DUX4", "assay": "5-AzaC treatment of FSHD ESC iPMs", "details": "data not shown", "method": "iPMs were treated for 24 hr with a pulse of epigenetic drugs, followed by culturing for 7 days in iPM growth medium and 7 days of iPMC differentiation medium. The cultured iPMs were then subjected to qPCR analysis to determine the expression of MBD3L2 RNA (a DUX4 biomarker) and MYH8 RNA (a muscle differentiation marker data now shown). […] See, FIG. 11D. […] et al., (2015). […] See, FIG. 11D."}, "[5]": {"tested_on": "DUX4", "assay": "24 hr 5-AzaC pulse of FSHD iPM (S2 cells), qPCR of MBD3L2 and MYH8 RNA", "method": "as §1\nTo investigate epigenetic mechanisms responsible for DUX4 repression during reprogramming and iPM induction, a blinded screen was conducted to identify epigenetic drugs that activate DUX4 in FSHD iPM undergoing myogenesis.\niPMs were treated for 24 hr with a pulse of epigenetic drugs, followed by culturing for 7 days in iPM growth medium and 7 days of iPMC differentiation medium. The cultured iPMs were then subjected to qPCR analysis to determine the expression of MBD3L2 RNA (a DUX4 biomarker) and MYH8 RNA (a muscle differentiation marker data now shown). […] See, FIG. 11D. […]\nFor quantification of housekeeping genes, DUX4 biomarker or muscle differentiation marker expression, 20 ng of cDNA was used for each reaction. For quantification of DUX4 expression, 90-150 ng of cDNA was used in each reaction."}}, "note": "Entries after “also recorded” stand apart in the source; their conditions may differ.", "data": [{"smiles": "Cc1c(F)cc(C(=O)NC2CC2)cc1-c1ccc(C(=O)NCC(C)(C)C)cn1", "note": "[Losmapimod]", "values": [{"measurement": "DUX4 target gene expression", "setting": "[1]", "value": "decreases; also recorded: inhibited"}]}, {"smiles": "Nc1ncn([C@@H]2O[C@H](CO)[C@@H](O)[C@H]2O)c(=O)n1", "note": "[5-AzaC, 5-azacytidine]", "values": [{"measurement": "demethylation, genome-wide methylome analysis", "setting": "[2]", "value": "selective demethylation of many sequences throughout the genome"}, {"measurement": "DUX4 biomarker expression in myotubes", "setting": "[3]", "value": "only a small increase"}, {"measurement": "DUX4 expression", "setting": "[4]", "value": "high levels of DUX4 expression"}, {"measurement": "DUX4 expression, as assayed by MBD3L2 RNA biomarker expression", "setting": "[5]; 24 hr pulse, then 7 days iPM growth medium and 7 days iPMC differentiation medium, qPCR", "value": "effectively increased DUX4 expression in a concentration dependent manner; also recorded: can be reversed"}, {"measurement": "MYH8 RNA expression", "setting": "[5]; high 5-AzaC concentrations", "value": "decreased"}]}]}
